Inconclusive results and toxic doses are left out. Square brackets hold non-standard residues; d marks the D form. Peptide text beside a SMILES is read from it. * marks the point of attachment. Cbz = O=C(OCc1ccccc1)*; Sar = CNCC(=O)O
System: L1210 leukemia ip in BDF1 mice, survival T/C
Assay: NCI In Vivo Anticancer Drug Screen. Data for tumor model L1210 Leukemia (intraperitoneal) in B6D2F1 (BDF1) mice
Conditions: endpoint: mean survival time, higher = longer survival
In short: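 Ratio derived from survival: compound-dosed mice over vehicle-dosed mice, all bearing a transplantable tumor.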

[1] = dose: 100.0 mg/kg/injection, schedule: Q04DX003 (ip), vehicle: saline
[2] = dose: 200.0 mg/kg/injection, schedule: Q04DX003 (ip), vehicle: saline
[3] = dose: 400.0 mg/kg/injection, schedule: Q04DX003 (ip), vehicle: saline
[4] = dose: 100.0 mg/kg/injection, schedule: Q01DX009 (ip), vehicle: saline
[5] = dose: 200.0 mg/kg/injection, schedule: Q01DX009 (ip), vehicle: saline
[6] = dose: 400.0 mg/kg/injection, schedule: Q01DX009 (ip), vehicle: saline
[7] = dose: 6.25 mg/kg/injection, schedule: Q01DX009 (ip), vehicle: saline with Tween-80
[8] = dose: 12.5 mg/kg/injection, schedule: Q01DX009 (ip), vehicle: saline with Tween-80
[9] = dose: 100.0 mg/kg/injection, schedule: Q01DX009 (ip), vehicle: Klucel (hydroxypropylcellulose) (HPC)
[10] = dose: 200.0 mg/kg/injection, schedule: Q01DX009 (ip), vehicle: Klucel (hydroxypropylcellulose) (HPC)
[11] = dose: 400.0 mg/kg/injection, schedule: Q01DX009 (ip), vehicle: Klucel (hydroxypropylcellulose) (HPC)
[12] = dose: 100.0 mg/kg/injection, schedule: Q04DX003 (ip), vehicle: saline with Tween-80
[13] = dose: 200.0 mg/kg/injection, schedule: Q04DX003 (ip), vehicle: saline with Tween-80
[14] = dose: 400.0 mg/kg/injection, schedule: Q04DX003 (ip), vehicle: saline with Tween-80

SMILES: O=NN(CCO)C(=O)Nc1ccc(NC(=O)N(CCO)N=O)cc1
- T/C (dose: 9.0 mg/kg/injection, schedule: Q01DX001 (ip), vehicle: carboxymethylcellulose (CMC)): 106 % of control
- T/C (dose: 18.0 mg/kg/injection, schedule: Q01DX001 (ip), vehicle: carboxymethylcellulose (CMC)): 108 % of control
- T/C (dose: 26.0 mg/kg/injection, schedule: Q01DX001 (ip), vehicle: carboxymethylcellulose (CMC)): 114 % of control
- T/C (dose: 40.0 mg/kg/injection, schedule: Q01DX001 (ip), vehicle: carboxymethylcellulose (CMC)): 111 % of control
- T/C (dose: 60.0 mg/kg/injection, schedule: Q01DX001 (ip), vehicle: carboxymethylcellulose (CMC)): 111 % of control

SMILES: COC(=O)CN(C)C(=O)CNC(=O)OCc1ccccc1 (Cbz-Gly-[Sar]-OMe)
- T/C [1]: 97 % of control
- T/C [2]: 90 % of control
- T/C [3]: 100 % of control

SMILES: CC(CCOCC1CO1)OCC1CO1 (stereo unspecified)
- T/C [4]: 101 % of control
- T/C [1]: 106 % of control
- T/C [5]: 113 % of control
- T/C [2]: 105 % of control
- T/C [6]: 120 % of control
- T/C [3]: 120 % of control

SMILES: CSCCC1NC(=O)C(C(C)=Nc2ccccc2)=C1O (stereo unspecified)
- T/C (dose: 50.0 mg/kg/injection, schedule: Q01DX001 (ip), vehicle: carboxymethylcellulose (CMC)): 101 % of control
- T/C (dose: 100.0 mg/kg/injection, schedule: Q01DX001 (ip), vehicle: carboxymethylcellulose (CMC)): 109 % of control
- T/C (dose: 200.0 mg/kg/injection, schedule: Q01DX001 (ip), vehicle: carboxymethylcellulose (CMC)): 104 % of control
- T/C (dose: 400.0 mg/kg/injection, schedule: Q01DX001 (ip), vehicle: carboxymethylcellulose (CMC)): 104 % of control

SMILES: O=C(Nc1ccc(C2=NCCN2)cc1)c1ccc(F)c(C(=O)Nc2ccc(C3=NCCN3)cc2)c1
- T/C (dose: 2.25 mg/kg/injection, schedule: Q01DX Z (ip), vehicle: water): 105 % of control
- T/C (dose: 4.5 mg/kg/injection, schedule: Q01DX Z (ip), vehicle: water): 107 % of control
- T/C (dose: 9.0 mg/kg/injection, schedule: Q01DX Z (ip), vehicle: water): 116 % of control
- T/C (dose: 37.5 mg/kg/injection, schedule: Q01DX Z (ip), vehicle: water): 154 % of control
- T/C (dose: 75.0 mg/kg/injection, schedule: Q01DX Z (ip), vehicle: water): 189 % of control
- T/C (dose: 150.0 mg/kg/injection, schedule: Q01DX Z (ip), vehicle: water): 241 % of control
- T/C (dose: 300.0 mg/kg/injection, schedule: Q01DX Z (ip), vehicle: water): 229 % of control

SMILES: CCCCCCCCCCCC(C)NCc1ccccc1 (stereo unspecified)
- T/C [7]: 89 % of control
- T/C [8]: 89 % of control
- T/C (dose: 25.0 mg/kg/injection, schedule: Q01DX009 (ip), vehicle: saline with Tween-80): 97 % of control
- T/C (dose: 25.0 mg/kg/injection, schedule: Q04DX003 (ip), vehicle: saline): 94 % of control
- T/C (dose: 35.0 mg/kg/injection, schedule: Q01DX009 (ip), vehicle: acetone): 92 % of control

SMILES: CCCCOC(=O)OCNC(=O)Oc1ccc(Br)cc1Br
- T/C [9]: 92 % of control
- T/C [10]: 94 % of control
- T/C [11]: 101 % of control

SMILES: O=C(O)c1cccc(CBr)c1CBr
- T/C (dose: 6.25 mg/kg/injection, schedule: Q01DX001 (ip), vehicle: saline with Tween-80): 97 % of control
- T/C [7]: 93 % of control
- T/C (dose: 12.5 mg/kg/injection, schedule: Q01DX001 (ip), vehicle: saline with Tween-80): 96 % of control
- T/C [8]: 96 % of control
- T/C (dose: 25.0 mg/kg/injection, schedule: Q01DX001 (ip), vehicle: saline with Tween-80): 100 % of control

SMILES: CCCCCCOC(=O)C(N)Cc1ccc(OC)c(N(CCCl)CCCl)c1 (stereo unspecified)
- T/C (dose: 12.5 mg/kg/injection, schedule: Q01DX001 (ip), vehicle: saline): 93 % of control
- T/C (dose: 15.0 mg/kg/injection, schedule: Q01DX001 (ip), vehicle: saline): 94 % of control

SMILES: Cc1nn(O)ccc1=N
- T/C (dose: 56.25 mg/kg/injection, schedule: Q04DX002 (ip), vehicle: saline): 104 % of control
- T/C (dose: 112.5 mg/kg/injection, schedule: Q04DX002 (ip), vehicle: saline): 96 % of control
- T/C (dose: 225.0 mg/kg/injection, schedule: Q04DX002 (ip), vehicle: saline): 101 % of control

SMILES: C(/C=C/C=C/Nc1ccccc1)=Nc1ccccc1
- T/C [12]: 100 % of control
- T/C [13]: 104 % of control
- T/C [14]: 92 % of control

SMILES: COC(=O)C1C(C)(C(=O)OC)N=NC1(c1ccccc1)c1ccccc1 (stereo unspecified)
- T/C (dose: 100.0 mg/kg/injection, schedule: Q01DX001 (ip), vehicle: steriod suspending solution): 101 % of control
- T/C (dose: 200.0 mg/kg/injection, schedule: Q01DX001 (ip), vehicle: steriod suspending solution): 104 % of control
- T/C (dose: 400.0 mg/kg/injection, schedule: Q01DX001 (ip), vehicle: steriod suspending solution): 98 % of control

SMILES: CCOC(=O)/C(C)=C\c1c(C)[nH]c(=O)[nH]c1=O
- T/C [4]: 87 % of control
- T/C [1]: 97 % of control
- T/C [5]: 94 % of control
- T/C [2]: 94 % of control
- T/C [6]: 86 % of control
- T/C [3]: 92 % of control

SMILES: CCCCCCOc1ccc(C=Nc2ccc(C(=O)OCC)cc2)cc1
- T/C (dose: 50.0 mg/kg/injection, schedule: Q01DX009 (ip), vehicle: Klucel (hydroxypropylcellulose) (HPC)): 96 % of control
- T/C [9]: 97 % of control
- T/C [10]: 97 % of control

SMILES: O=C1/C(=C\c2ccc(OCc3ccccc3)cc2)N2CCC1CC2
- T/C [12]: 97 % of control
- T/C [13]: 95 % of control
- T/C [14]: 87 % of control

SMILES: CCOc1ccc(C2(C)CC(=O)NN2)c(O)c1 (stereo unspecified)
- T/C (dose: 100.0 mg/kg/injection, schedule: Q01DX001 (ip), vehicle: saline with Tween-80): 101 % of control
- T/C (dose: 200.0 mg/kg/injection, schedule: Q01DX001 (ip), vehicle: saline with Tween-80): 103 % of control
- T/C (dose: 400.0 mg/kg/injection, schedule: Q01DX001 (ip), vehicle: saline with Tween-80): 98 % of control

SMILES: FC(F)(F)C(=Cc1nc2ccccc2s1)C(F)(F)F
- T/C (dose: 12.5 mg/kg/injection, schedule: Q01DX009 (ip), vehicle: Klucel (hydroxypropylcellulose) (HPC)): 91 % of control
- T/C (dose: 12.5 mg/kg/injection, schedule: Q04DX003 (ip), vehicle: Klucel (hydroxypropylcellulose) (HPC)): 93 % of control
- T/C (dose: 25.0 mg/kg/injection, schedule: Q01DX009 (ip), vehicle: Klucel (hydroxypropylcellulose) (HPC)): 98 % of control
- T/C (dose: 25.0 mg/kg/injection, schedule: Q04DX003 (ip), vehicle: Klucel (hydroxypropylcellulose) (HPC)): 97 % of control
- T/C (dose: 50.0 mg/kg/injection, schedule: Q04DX003 (ip), vehicle: Klucel (hydroxypropylcellulose) (HPC)): 95 % of control

SMILES: CSc1ccc(OC(=O)Nc2cccc(Cl)c2)cc1
- T/C (dose: 100.0 mg/kg/injection, schedule: Q04DX002 (ip), vehicle: saline with Tween-80): 100 % of control
- T/C (dose: 200.0 mg/kg/injection, schedule: Q04DX002 (ip), vehicle: saline with Tween-80): 93 % of control
- T/C (dose: 400.0 mg/kg/injection, schedule: Q04DX002 (ip), vehicle: saline with Tween-80): 104 % of control

SMILES: C=C(C)C(=O)O (tested in a mixture with another compound)
- T/C (dose: 100.0 mg/kg/injection, schedule: Q01DX Z (ip), vehicle: saline): 105 % of control
- T/C (dose: 200.0 mg/kg/injection, schedule: Q01DX Z (ip), vehicle: saline): 89 % of control

SMILES: Nc1nnc(SCc2ccccc2)s1
- T/C [9]: 92 % of control
- T/C [10]: 105 % of control
- T/C [11]: 97 % of control

SMILES: FC(F)(F)c1cccc(-n2nncc2-c2ccc(Cl)cc2)c1
- T/C (dose: 100.0 mg/kg/injection, schedule: Q04DX002 (ip), vehicle: Klucel (hydroxypropylcellulose) (HPC)): 96 % of control
- T/C (dose: 200.0 mg/kg/injection, schedule: Q04DX002 (ip), vehicle: Klucel (hydroxypropylcellulose) (HPC)): 101 % of control
- T/C (dose: 400.0 mg/kg/injection, schedule: Q04DX002 (ip), vehicle: Klucel (hydroxypropylcellulose) (HPC)): 96 % of control

SMILES: O=C(COc1cc(Cl)c(Cl)cc1Cl)Nc1ccccc1
- T/C (dose: 100.0 mg/kg/injection, schedule: Q04DX002 (ip), vehicle: saline): 92 % of control
- T/C (dose: 200.0 mg/kg/injection, schedule: Q04DX002 (ip), vehicle: saline): 100 % of control
- T/C (dose: 400.0 mg/kg/injection, schedule: Q04DX002 (ip), vehicle: saline): 103 % of control

SMILES: C=CCNC(=S)Nc1ccc(OC(=O)NC(C)(C)C)cc1
- T/C [9]: 94 % of control
- T/C [10]: 95 % of control
- T/C [11]: 89 % of control
